No end group written: not given here.
Assays:
[1] = target: HLA-DRA1*0101, DRB1*1501 (DR2) (Homo sapiens, UniProt P01903+P01911); test: DR2
Experimental: Table printed on a drawing sheet, Figure 9
The patent's description of the figure: FIG. 9: Diverse patterns of in vitro peptide-MHC II binding for peptides 9K1, 17JK and 15N3K. Binding of peptides 9K1, 17JK and 15N3K to recombinant HLA-DRA1*0101, DRB1*0101 (DR1), DRB1*1501 (DR2), DRB1*0301 (DR3), DRB1*0401 (DR4), DRB1*1101 (DR11), DRB1*0405 (DR4*05) and DRB1*0901 (DR9) was assessed in vitro. IC50 values (µM) are presented and colour-coded per HLA-DR molecule. Low values (green) indicate strong binding, high values (red) indicate low(er) binding.
FIG. 9 depicts IC50 (µM) values of peptides 9K1K, 17JK and 15N3K binding to the indicated HLA-DR molecules and competing with a known competitor peptide. Values should be compared only within each HLA-DR molecule. Low IC50 values (green) indicate the strongest binder per HLA-DR molecule. Highest values per HLA-DR molecule (red) are indicative of the lowest binder for that HLA-DR molecule. Intermediate values are indicated in orange. […]
First copying reader's note: The sheet prints no unit; per the patent description the values are IC50 (µM) for peptide binding to the named HLA-DR molecules, with cell shading coding relative binding strength per HLA-DR molecule.
Where the first naming reader finds the target: description_of_the_figure: recombinant HLA-DRA1*0101, DRB1*0101 (DR1), DRB1*1501 (DR2)

[2] = test system: S-Ag-induced cell activation (IFNy production of LN cells and splenocytes); test: Ex vivo tolerization experiment (DR2tg mice); type: in vivo
Experimental: FIG. 4: 9K1K alone induces tolerance towards S-Ag protein in DR2tg mice. Mice were injected subcutaneously in the flank with 0,1 µg/ml, 1 µg/ml and 10 µg/ml 9K1K on days -15, -13 and -11, followed by 3 injections of 100 µg/ml on days -8, -6 and -4 (escalating dose regime). On day 0, mice were immunized subcutaneously at the base of the tail with antigen/CFA. Mice were sacrificed 10 days after immunization to measure activation of LN cells and splenocytes upon S-Ag restimulation. IFNy concentration was measured in the culture supernatant as an indication of cell activation. Data represent mean ± SEM of the concentration of IFNy for the PBS-treated mice (black lines) and 9K1K-treated mice (grey lines). Two-way ANOVA was used to measure overall treatment effects on T cell activation. Dunnett’s multiple comparisons test was used and significant differences are indicated in the graphs (** p<0.01; **** p<0.0001). The % inhibition of IFNy production as compared to the control group is indicated in the graphs. (A) Tolerization against S-Ag in LN. IFNy production expressed as IFNy concentration (pg/ml). (B) Tolerization against S-Ag in spleen. IFNy production expressed as IFN-Y concentration (pg/ml). LN, lymph nodes. Data representative of 3 independent experiments.
FIG. 8: Treatment with peptide cocktail ATX975 reduces S-Ag-induced immune cell activation in DR2tg mice more efficiently than treatment with 9K1K alone. Mice were injected subcutaneously in the flank with 0.015 nmol, 0.15 nmol and 1.5 nmol of peptide on days -15, -13 and -11 respectively, followed by 3 injections of 15 nmol peptide on days -8, -6 and -4 (dose escalation schedule). For treatment with the cocktail (ATX975) containing 3 peptides, these doses were given per peptide (reaching a total top dose of 45 nmol peptide). On day 0, mice were immunized subcutaneously at the base of the tail with antigen/CFA. Mice were sacrificed 10 days after immunization to measure activation of splenocytes upon S-Ag restimulation. […] IFN-y production expressed as IFN-y concentration (pg/ml). […]

[3] = test system: MHC II molecules on dendritic cells (CD11c+ cells); test: In vivo MHC class II loading assay (DR2tg mice); set-up: species or system HLA-DR2-transgenic mice; settings: 100 µg peptide s.c., spleen 2 h post injection, 72 h co-culture, vs PBS-injected control
Experimental: FIG. 1: Peptide 9K1K is correctly loaded on MHC class II in vivo. Response of peptide-specific CD4+ T cells towards peptide loaded in vivo on dendritic cells is shown. HLA-DR2-transgenic mice were injected subcutaneously with 100 µg of 9K1K peptide. 2 h post injection, spleens were dissected and CD11 c+ cells (dendritic cells) were isolated. These CD11c+ cells were co-cultured with peptide-specific CD4+ cells for 72 h at 37° C. IFNy was measured in the supernatant of these cultures to evaluate the response to peptide by the CD4+ T cells. (* p<0.05 Mann-Whitney U-test)
When 100 µg of peptide 9K1K was injected in DR2tg mice or when peptide 17JK or 15N3K was injected in DR3tg mice, these peptides could be detected on dendritic cells (CD11c+ cells) in the spleens of these mice 2 h post injection. Activation (IFNY production) of peptide-specific CD4+ T cells by the isolated CD11 c+ cells was used as a read-out. […]
DR3tg or DR2tg mice were injected with 100 µg of peptide in 100 µl PBS subcutaneously (s.c.) in the flank. […] After 72 hours, supernatant of these co-cultures was collected and CD4+ T cell activation was analysed by IFNy ELISA (R&D Systems, Abingdon, UK). In a parallel experiment, CD4+ T cell responses towards peptide added in vitro were assessed to make sure the T cells recognize the peptides presented by the CD11 c+ cells.

IC50 [1]: 0.52 µM
Substance: KKKAFVEQVANVVLKKK-NH2 [9K1K, KKKAFVEQVANVVLKKK]
reduction of S-Ag-induced cell activation (IFNy) in spleens ([2]; dose escalation to 15 nmol per peptide s.c., cocktail vs single peptide, vs control mice (FIG. 8)): 51% | reduction of S-Ag-induced cell activation (IFNy) in lymph nodes ([2]; single peptide escalating dose s.c., vs PBS, 10 days after immunization (FIG. 4A)): 77% | reduction of S-Ag-induced cell activation (IFNy) in spleen ([2]; single peptide escalating dose s.c., vs PBS, 10 days after immunization (FIG. 4B)): 70% | CD4+ T cell activation (IFNy) by CD11c+ cells isolated from spleen of injected mice [3]: significant CD4+ T cell activation

Reference: patent US20230203126A1, “A COMPOSITION COMPRISING S-ARRESTIN PEPTIDES” (WORG PHARMACEUTICALS (HANGZHOU) CO., LTD., priority 2019, published 2023)
